Measured values: PubChem BioAssay (NCI)
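Cells were grown in 96-well plates and exposed to each compound for 48 hours at five concentrations; endpoints were interpolated linearly between bracketing concentrations, or set to the highest concentration if not reached. At the GI50, growth is halved. TGI denotes the concentration required for complete inhibition of growth.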

How the values were obtained:
Test in all cases: NCI anticancer screen, dose series, 48 h
[1] = test system: 786-0 renal
[2] = test system: A498 renal
[3] = test system: A549 NSCLC
[4] = test system: ACHN renal
[5] = test system: BT-549 breast
[6] = test system: CAKI-1 renal
[7] = test system: CCRF-CEM leukemia
[8] = test system: COLO 205 colon
[9] = test system: DU-145 prostate
[10] = test system: EKVX NSCLC
[11] = test system: HCT-116 colon
[12] = test system: HCT-15 colon
[13] = test system: HL-60(TB) leukemia
[14] = test system: HOP-62 NSCLC
[15] = test system: HOP-92 NSCLC
[16] = test system: HS 578T breast
[17] = test system: HT29 colon
[18] = test system: IGROV1 ovarian
[19] = test system: K-562 leukemia
[20] = test system: KM12 colon
[21] = test system: LOX IMVI melanoma
[22] = test system: M14 melanoma
[23] = test system: MALME-3M melanoma
[24] = test system: MCF7 breast
[25] = test system: MDA-MB-231 breast
[26] = test system: MDA-MB-435
[27] = test system: MOLT-4 leukemia
[28] = test system: NCI-H226 lung
[29] = test system: NCI-H23 lung
[30] = test system: NCI-H460 lung
[31] = test system: NCI-H522 lung
[32] = test system: NCI/ADR-RES ovarian
[33] = test system: OVCAR-3 ovarian
[34] = test system: OVCAR-4 ovarian
[35] = test system: OVCAR-5 ovarian
[36] = test system: OVCAR-8 ovarian
[37] = test system: PC-3 prostate
[38] = test system: RPMI-8226 leukemia
[39] = test system: RXF 393 renal
[40] = test system: SF-268 CNS
[41] = test system: SF-295 CNS
[42] = test system: SF-539 CNS
[43] = test system: SK-MEL-2 melanoma
[44] = test system: SK-MEL-28 melanoma
[45] = test system: SK-MEL-5 melanoma
[46] = test system: SK-OV-3 ovarian
[47] = test system: SN12C renal
[48] = test system: SNB-19 CNS
[49] = test system: SNB-75 CNS
[50] = test system: SR leukemia
[51] = test system: SW-620 colon
[52] = test system: T-47D breast
[53] = test system: TK-10 renal
[54] = test system: U251 CNS
[55] = test system: UACC-257 melanoma
[56] = test system: UACC-62 melanoma
[57] = test system: UO-31 renal
[58] = test system: HCC-2998 colon

O=C1/C(=C\c2ccc(Cl)cc2)CCOc2c1ccc1ccccc21
GI50 [1]: 24 µM | TGI [1]: 55.7 µM | GI50 [2]: 36.4 µM | TGI [2]: 61.8 µM | GI50 [3]: 42.8 µM | TGI [3]: > 100 µM | GI50 [4]: 20.4 µM | TGI [4]: 42.9 µM | GI50 [5]: 18.8 µM | TGI [5]: 47 µM | GI50 [6]: 31.7 µM | TGI [6]: 66 µM | GI50 [7]: 28.8 µM | TGI [7]: > 100 µM | GI50 [8]: 22 µM | TGI [8]: 50.1 µM | GI50 [9]: 19.7 µM | TGI [9]: 61.7 µM | GI50 [10]: 16.7 µM | TGI [10]: 47.6 µM | GI50 [11]: 35 µM | TGI [11]: > 100 µM | GI50 [12]: 14.9 µM | TGI [12]: 62.4 µM | GI50 [13]: 46.4 µM | TGI [13]: > 100 µM | GI50 [14]: 25.8 µM | TGI [14]: 63.6 µM | GI50 [15]: 17.8 µM | TGI [15]: 63.4 µM | GI50 [16]: 46.5 µM | TGI [16]: > 100 µM | GI50 [17]: 22.6 µM | TGI [17]: 72 µM | GI50 [18]: 55.3 µM | TGI [18]: > 100 µM | GI50 [19]: 22.5 µM | TGI [19]: > 100 µM | GI50 [20]: 31.8 µM | TGI [20]: > 100 µM | GI50 [21]: 18.6 µM | TGI [21]: 42.3 µM | GI50 [22]: 36.3 µM | TGI [22]: > 100 µM | GI50 [23]: 25.9 µM | TGI [23]: 57.9 µM | GI50 [24]: 19.4 µM | TGI [24]: > 100 µM | GI50 [25]: 18.6 µM | TGI [25]: 57 µM | GI50 [26]: 23.2 µM | TGI [26]: > 100 µM | GI50 [27]: 11.7 µM | TGI [27]: > 100 µM | GI50 [28]: 11.2 µM | TGI [28]: 27.1 µM | GI50 [29]: 21.6 µM | TGI [29]: 56.7 µM | GI50 [30]: 21.4 µM | TGI [30]: 76.4 µM | GI50 [31]: 30.1 µM | TGI [31]: > 100 µM | GI50 [32]: 19.6 µM | TGI [32]: 62.8 µM | GI50 [33]: 39.4 µM | TGI [33]: 87.6 µM | GI50 [34]: 36.7 µM | TGI [34]: > 100 µM | GI50 [35]: 26.1 µM | TGI [35]: 78.8 µM | GI50 [36]: 28.1 µM | TGI [36]: > 100 µM | GI50 [37]: 43.5 µM | TGI [37]: > 100 µM | GI50 [38]: 14 µM | TGI [38]: 55.5 µM | GI50 [39]: 22.4 µM | TGI [39]: 63.6 µM | GI50 [40]: 24.2 µM | TGI [40]: 83.9 µM | GI50 [41]: 33.5 µM | TGI [41]: > 100 µM | GI50 [42]: 12.2 µM | TGI [42]: 29.9 µM | GI50 [43]: 87.5 µM | TGI [43]: > 100 µM | GI50 [44]: 19 µM | TGI [44]: 38.2 µM | GI50 [45]: 20.6 µM | TGI [45]: 45.8 µM | GI50 [46]: 42.6 µM | TGI [46]: > 100 µM | GI50 [47]: 18.5 µM | TGI [47]: 49.6 µM | GI50 [48]: 23.9 µM | TGI [48]: 72.3 µM | GI50 [49]: 34.6 µM | TGI [49]: > 100 µM | GI50 [50]: 11.9 µM | TGI [50]: > 100 µM | GI50 [51]: 38.5 µM | TGI [51]: > 100 µM | GI50 [52]: 19 µM | TGI [52]: 42.2 µM | GI50 [53]: 27.6 µM | TGI [53]: 72.3 µM | GI50 [54]: 20.3 µM | TGI [54]: 58.6 µM | GI50 [55]: 29.8 µM | TGI [55]: 83.3 µM | GI50 [56]: 18.7 µM | TGI [56]: 47 µM | GI50 [57]: 35.4 µM | TGI [57]: > 100 µM

CCC(=O)c1c(C(F)(F)F)n([O-])c2cc(N3CCNCC3)c(F)cc2[n+]1=O
GI50 [1]: 3.86 µM | TGI [1]: 17.6 µM | GI50 [2]: 1.67 µM | TGI [2]: 11.1 µM | GI50 [3]: 2.58 µM | TGI [3]: 13.8 µM | GI50 [4]: 1.55 µM | TGI [4]: 13.7 µM | GI50 [5]: 2.84 µM | TGI [5]: 12.5 µM | GI50 [6]: 3.27 µM | TGI [6]: 17.9 µM | GI50 [7]: 2.05 µM | TGI [7]: 22.9 µM | GI50 [8]: 0.454 µM | TGI [8]: 10.8 µM | GI50 [9]: 1.61 µM | TGI [9]: 4.36 µM | GI50 [10]: 2.82 µM | TGI [10]: 13.7 µM | GI50 [58]: 1.4 µM | TGI [58]: 14.3 µM | GI50 [11]: 1.71 µM | TGI [11]: 13.1 µM | GI50 [12]: 1.76 µM | TGI [12]: 13.5 µM | GI50 [13]: 1.18 µM | TGI [13]: 6.68 µM | GI50 [14]: 10.2 µM | TGI [14]: 22.6 µM | GI50 [15]: 2.69 µM | TGI [15]: 17.5 µM | GI50 [16]: 2.74 µM | TGI [16]: 21.3 µM | GI50 [17]: 2.1 µM | TGI [17]: 18.5 µM | GI50 [19]: 1.65 µM | TGI [19]: 12.8 µM | GI50 [20]: 1.41 µM | TGI [20]: 15.4 µM | GI50 [21]: 3.41 µM | TGI [21]: 19.4 µM | GI50 [22]: 3.28 µM | TGI [22]: 14.2 µM | GI50 [23]: 0.324 µM | TGI [23]: 8.16 µM | GI50 [24]: 3.48 µM | TGI [24]: 19.8 µM | GI50 [25]: 4.17 µM | TGI [25]: 17.1 µM | GI50 [26]: 4.95 µM | TGI [26]: 17.3 µM | GI50 [27]: 2.03 µM | TGI [27]: 34.5 µM | GI50 [28]: 5.37 µM | TGI [28]: 25.2 µM | GI50 [29]: 3.42 µM | TGI [29]: 16.2 µM | GI50 [30]: 1.48 µM | TGI [30]: 11.5 µM | GI50 [32]: 3.95 µM | TGI [32]: 24.3 µM | GI50 [33]: 1.66 µM | TGI [33]: 8.67 µM | GI50 [34]: 1.89 µM | TGI [34]: 25 µM | GI50 [35]: 7.78 µM | TGI [35]: 27.3 µM | GI50 [36]: 2.38 µM | TGI [36]: 11.7 µM | GI50 [37]: 2.33 µM | TGI [37]: 15.8 µM | GI50 [38]: 2.17 µM | TGI [38]: 12.2 µM | GI50 [39]: 1.62 µM | TGI [39]: 15.1 µM | GI50 [40]: 4.76 µM | TGI [40]: 21.1 µM | GI50 [41]: 4.2 µM | TGI [41]: 18.5 µM | GI50 [42]: 10.3 µM | TGI [42]: 22.4 µM | GI50 [43]: 2.7 µM | TGI [43]: 11.7 µM | GI50 [44]: 7.93 µM | TGI [44]: 21.9 µM | GI50 [45]: 1.26 µM | TGI [45]: 3.55 µM | GI50 [46]: 1.97 µM | TGI [46]: 10.4 µM | GI50 [47]: 2.73 µM | TGI [47]: 14.6 µM | GI50 [48]: 7.31 µM | TGI [48]: 20.6 µM | GI50 [49]: 1.77 µM | TGI [49]: 12.5 µM | GI50 [50]: 1.53 µM | TGI [50]: 21.9 µM | GI50 [51]: 2.68 µM | TGI [51]: 17.9 µM | GI50 [52]: 2.81 µM | TGI [52]: 19.1 µM | GI50 [53]: 2.93 µM | TGI [53]: 17 µM | GI50 [54]: 5.04 µM | TGI [54]: 19.9 µM | GI50 [55]: 3.22 µM | TGI [55]: 13 µM | GI50 [56]: 2.27 µM | TGI [56]: 11.9 µM
